In the NIST ThermoML archive (doi:10.1021/je500886a):

Experiment: mn = molality of the nth substance listed, in mol/kg
Conditions: 101 kPa, Liquid

O=C[C@H](O)[C@@H](O)[C@@H](O)[C@H](O)CO [(+)-galactose] + O
Conditions	mass density [kg/m3]	viscosity [mPa·s]
288.15 K, m1 = 0.05001	–	1.166
288.15 K, m1 = 0.05096	1002.7	–
288.15 K, m1 = 0.06903	1003.95	–
288.15 K, m1 = 0.07068	–	1.178
288.15 K, m1 = 0.09042	1005.42	–
288.15 K, m1 = 0.09059	–	1.189
288.15 K, m1 = 0.1099	–	1.199
288.15 K, m1 = 0.1289	–	1.208
288.15 K, m1 = 0.1513	–	1.22
288.15 K, m1 = 0.1552	1009.81	–
298.15 K, m1 = 0.05001	–	0.91
298.15 K, m1 = 0.05096	1000.58	–
298.15 K, m1 = 0.06903	1001.82	–
298.15 K, m1 = 0.07068	–	0.919
298.15 K, m1 = 0.09042	1003.27	–
298.15 K, m1 = 0.09059	–	0.927
298.15 K, m1 = 0.1099	–	0.935
298.15 K, m1 = 0.1102	1004.61	–
298.15 K, m1 = 0.1289	–	0.941
298.15 K, m1 = 0.1322	1006.08	–
298.15 K, m1 = 0.1513	–	0.951
308.15 K, m1 = 0.05001	–	0.734
308.15 K, m1 = 0.05096	997.56	–
308.15 K, m1 = 0.06903	998.79	–
308.15 K, m1 = 0.07068	–	0.741
308.15 K, m1 = 0.09042	1000.22	–
308.15 K, m1 = 0.09059	–	0.747
308.15 K, m1 = 0.1099	–	0.753
308.15 K, m1 = 0.1102	1001.54	–
308.15 K, m1 = 0.1289	–	0.758
308.15 K, m1 = 0.1322	1003	–
308.15 K, m1 = 0.1513	–	0.766
308.15 K, m1 = 0.1552	1004.51	–
318.15 K, m1 = 0.05001	–	0.607
318.15 K, m1 = 0.05096	993.7	–
318.15 K, m1 = 0.06903	994.91	–
318.15 K, m1 = 0.07068	–	0.612
318.15 K, m1 = 0.09042	996.33	–
318.15 K, m1 = 0.09059	–	0.617
318.15 K, m1 = 0.1099	–	0.621
318.15 K, m1 = 0.1102	997.64	–
318.15 K, m1 = 0.1289	–	0.625
318.15 K, m1 = 0.1322	999.07	–
318.15 K, m1 = 0.1513	–	0.63
318.15 K, m1 = 0.1552	1000.57	–

O=C[C@@H](O)[C@H](O)[C@H](O)CO [D-(-)-arabinose] + O
Conditions	mass density, 288.15 K [kg/m3]	mass density, 298.15 K [kg/m3]	mass density, 308.15 K [kg/m3]	mass density, 318.15 K [kg/m3]	viscosity, 288.15 K [mPa·s]	viscosity, 298.15 K [mPa·s]	viscosity, 308.15 K [mPa·s]	viscosity, 318.15 K [mPa·s]
m1 = 0.05173	1002.09	999.97	996.94	993.08	–	–	–	–
m1 = 0.05178	–	–	–	–	1.157	0.905	0.73	0.604
m1 = 0.0695	–	–	–	–	1.164	0.909	0.734	0.608
m1 = 0.07102	1003.18	1001.05	998	994.13	–	–	–	–
m1 = 0.08979	–	–	–	–	1.17	0.915	0.738	0.611
m1 = 0.09055	1004.28	1002.13	999.06	995.18	–	–	–	–
m1 = 0.1077	–	–	–	–	1.177	0.92	0.741	0.614
m1 = 0.1093	1005.32	1003.17	1000.07	996.18	–	–	–	–
m1 = 0.1244	1006.17	1004	1000.88	996.98	–	–	–	–
m1 = 0.1267	–	–	–	–	1.182	0.925	0.745	0.616
m1 = 0.1476	1007.45	1005.26	1002.12	998.21	–	–	–	–
m1 = 0.151	–	–	–	–	1.191	0.932	0.75	0.621
